The values that follow are results of earlier work, collected in US7456023B2, “Reagent for luminescence optical determination of an analyte” (Roche Diagnostics Operations, Inc., priority 2000, dated 2008).

For data set [1] the following is noted: for Absorption wavelength, deprotonated: deprotonated form; for Absorption wavelength, protonated: protonated form.

`O=S1(=O)OC(c2cc(Br)c(O)c(Br)c2)(c2cc(Br)c(O)c(Br)c2)c2ccccc21` [Bromophenol blue]: in data set [1], the “Absorption wavelength, deprotonated” value is listed as 617 nm and the “Absorption wavelength, protonated” value is 430 nm.

As for `Cc1c(C2(c3cc(C(C)C)c(O)c(Br)c3C)OS(=O)(=O)c3ccccc32)cc(C(C)C)c(O)c1Br` [Bromothymol blue], in data set [1], the “Absorption wavelength, deprotonated” value is recorded as 615-618 nm and the “Absorption wavelength, protonated” value was 430-435 nm.

`Cc1ccc(O)c(N=Nc2c(O)cc(S(=O)(=O)O)c3ccccc23)c1` [Calmagit]: in data set [1], the “Absorption wavelength, deprotonated” value is listed as 605 nm and the “Absorption wavelength, protonated” value is 530 nm.

On to `O=C1OC(c2ccc(O)c3ccccc23)(c2ccc(O)c3ccccc23)c2ccccc21` [Naphthol-phthalein], for which, in data set [1], the “Absorption wavelength, deprotonated” value was 661 nm and the “Absorption wavelength, protonated” value is given as 428 nm.

As for `O=C1C=CC(=Nc2ccc(O)cc2)C=C1Cl` [o-chlorophenol-indophenol], in data set [1], the “Absorption wavelength, deprotonated” value is 625 nm and the “Absorption wavelength, protonated” value is listed as 555 nm.

As to Dibromoxylenol blue, in data set [1], the “Absorption wavelength, deprotonated” value is reported as 614 nm and the “Absorption wavelength, protonated” value is recorded as 420 nm.

By pKa is commonly meant the negative logarithm of the acid dissociation constant. For Nitrazine yellow, the pKa was 6.5. For the same compound, in data set [1], the “Absorption wavelength, deprotonated” value is recorded as 590 nm and the “Absorption wavelength, protonated” value is 460 nm.
